Data reported in patent US20120258117A1, “Methods and compositions for modulation of histone ubiquitination” (priority 2011, published 2012).

Key:
U118 cells [1] = assay: Cell proliferation (viable cell count, Trypan blue exclusion); format: cell-based, human; settings: cells counted at 3, 6 and 9 days post treatment, dose- and time-dependent
Experimental: (§1) U87 MG and U118 MG (hereafter abbreviated as U87, U118 respectively) human glioblastoma (glioma) cell lines were kindly provided by Dr. Hui Zhang and Dr. Hong Sun. MCF7 (human breast cancer), H1299 (non-small cell lung carcinoma), and PC3 (human prostate cancer) cell lines were obtained from Dr. Giuseppe Pizzorno. Normal human dermal fibroblasts, HDF and normal human mammary epithelial cells, HMEpC, were purchased from Cell Applications (San Diego, Calif.). U118, U87, and MCF7 cultures were grown in high-glucose DMEM supplemented with 10% Fetal Bovine Serum (FBS, HyClone, Waltham, Mass.) and 1% Penicillin/Streptomycin. H1299 was grown in RPMI with 10% FBS and 1% Pen/Strep. PC3 cells were in F12K Medium with 10% FBS and 1% antibiotics. […] Cell number was measured by a hemacytometer (Hausser Scientific, Horsham, Pa.). Cell population doubling time (Td) was calculated from the exponential portion of the growth curve using the equation Td=0.693t/ln(Nt/N0), where t is time, and Nt and N0 represent cell numbers at time t and initial time, respectively (Y. Zhang, et al., Cancer Res 62 (2002) 1205-12). […]
(§2) To examine the effects of resveratrol on glioma cells, 5×10^4 U87 or U118 glioblastoma (Grade IV glioma cell) lines were plated in 60 mm dishes. […] Cells were then trypsinized and cell numbers counted at 3, 6, and 9 days post treatment.

U87 cells [2] = assay: as above; format: cell-based, human; settings: cells counted at 3, 6 and 9 days post treatment, dose- and time-dependent
Experimental: as §1, §2

U87 cells [3] = assay: Cellular hypertrophy / cell morphology; format: cell-based, human
From the text: Specifically, resveratrol transformed spindle-shaped glioma cells to enlarged and irregular flatten-shaped ones. The mean diameter of the resveratrol-treated U87 was 5 fold longer than the diameter parallel to the spindle axis of the mock-or vehicle-treated glioma cells. In contrast, mock and vehicle (acetone) treatment had no effect on inducing cellular hypertrophy.
It was then examined whether depletion of RNF20 could induce cellular senescence in glioma cells. Depletion of RNF20 induced similar cellular hypertrophy as observed with resveratrol treatment. Specifically, depletion of RNF20 transformed spindle-shaped glioma cells into extremely enlarged and irregular flatten-shaped ones (data not shown).

U118 cells [4] = assay: Cellular hypertrophy / cell morphology; format: cell-based, human; settings: resveratrol treatment
U118 glioma cells = assay: Senescence-associated-β-galactosidase (SA-β-gal) staining; format: cell-based, human; settings: resveratrol-induced hypertrophic cells
Experimental: (§3) Senescence-β-galactosidase staining was performed with a kit (Cat. #9860, Cell Signaling, Danvers, Mass.) according to manufacturer's protocol. Briefly, cells in 35 mm well were washed with 2 mL PBS, fixed for 10-15 minutes in 2 mL fixative solution, washed twice with 2 mL PBS, and then incubated in SA-β-gal staining solution overnight at 37° C. To determine whether cellular hypertrophy induced by resveratrol was associated with cellular senescence of glioma cells, expression of senescence-associated-β-galactosidase (SA-β-gal) marker was tested (G. P. Dimri, et al., Proc Natl Acad Sci USA 92 (1995) 9363-7; G. P. Dimri, et al., Biol Signals 5 (1996) 154-62).

U87 glioma cells = assay: as above; format: cell-based, human; settings: resveratrol-induced hypertrophic cells
Experimental: as §3

U118 cells [5] = assay: Clonogenic assay (plating efficiency); format: cell-based, human; settings: up to 9 days treatment, re-plated 1000-4000 cells, 14 days without resveratrol, dose-dependent
Experimental: (§4) Monolayer cultures of glioma cells were trypsinized and appropriate cell dilutions were re-plated. After 14 days, cultured cells were stained with 0.4% Coomassie Blue G250 in 50% methanol and 5% acetic acid. Colonies of 50 cells or more were counted. Plating efficiencies (PE) were calculated using the formula PE=(number of colonies counted/number of cells seeded)×100%. […] Monolayer cultures of glioma cells were trypsinized and seeded 1000, 2000, and 4000 cells separately in 60 mm culture dishes for incubation without further resveratrol treatment. After two weeks, these cell cultures were stained with 0.4% Coomassie Blue G250 in 50% methanol and 5% acetic acid. Colonies that contained more than 50 cells were counted. Cell clonogenicity was calculated with plating efficiencies (PE) using the formula PE=(number of colonies counted/number of cells seeded)×100%.

U87 cells [6] = assay: Clonogenic assay (plating efficiency); format: cell-based, human; settings: up to 9 days treatment, re-plated 1000-4000 cells, 14 days without resveratrol, dose-dependent
Experimental: as §4

U118 xenograft = assay: Growth of human tumor xenograft from resveratrol-pretreated cells; format: in vivo, nude (nu/nu) mice; settings: U118 treated 9 days in culture, 2×10^6 viable cells s.c. in nude mice; volume at 125 days post injection
Experimental: (§5) U87 or U118 Cells (2,000,000 in 0.1 ml PBS) were injected subcutaneously in the right flank of the female nude (nu/nu) mice (4-6 weeks old; Charles River Laboratories, Wilmington, Mass.). Five nude mice were used for each group. U87 tumor volume was measured at 27 days post injection while U118 tumor volume at 125 days post injection. When tumors were palpable, they were measured by a Vernier caliper in indicated days after injection. Tumor volume (TV) was calculated as follows: TV (mm^3)=LXW^2/2, where L is the longest dimension of the tumor (in mm), and W is the shortest dimension of the tumor. […] Glioma cells were then trypsinized, and 2×10^6 viable cells (by Trypan blue exclusion assay) were collected in 0.1 ml PBS. These cells were subsequently injected subcutaneously in the right flank of nude mice [female (nu/nu), 4-6 weeks old, 5 mice per group]. When the tumor was palpable, the size was measured with a Vernier caliper. Tumor volume was calculated (TV) using the formula: TV (mm^3)=LXW^2/2, in which L was the longest dimension of the tumor (in mm), and W was the shortest dimension of the tumor.

U87 xenograft = assay: as above; format: in vivo, nude (nu/nu) mice; settings: U87 treated 9 days in culture, 2×10^6 viable cells s.c. in nude mice; volume at 27 days post injection
Experimental: as §5

[7] = tested on: mono-ubiquitination of histone H2B at K120 (uH2B); assay: Western analysis of uH2B, acute (4-hour) resveratrol treatment; format: cell-based, human
Experimental: (§6) For short-term resveratrol treatment, cells in 60 mm dishes were allowed to grow to 40%-50% confluency. Their original media were changed to 5 ml DMEM media containing glucose (4.5 g/L) as the only carbon source (without both L-glutamine and sodium pyruvate). After one hour of media change, cells were collected as non-treated or treated with 5 μL acetone or resveratrol in 5 μL acetone vehicle for 4 hours and then collected for Western analysis. For long-term resveratrol treatment, 3×10^5 of U87 or U118 glioma cells were plated in 100 mm dishes. One day later, the culture media were replaced with fresh medium (10 mL/dish). […]
(§7) Cultured cells were harvested on ice (3-5 min) by scraping in the medium, centrifuged with about 300 relative centrifugal forces (RCF) for 2 minutes. […] Total protein was separated by 12% SDS polyacrylamide gel electrophoresis and analyzed with antibodies to H2B (Millipore, Billerica, Mass.), mono-ubiquitinated H2B (uH2B, MediMabs, Montreal, Quebec, Canada), RNF20 (Abcam, Cambridge, Mass.), p53 (Santa Cruz Biotechnology, Santa Cruz, Calif.). Immunoreactive bands were detected using SuperSignal kit (Thermo Scientific, Waltham, Mass.). […]

[8] = tested on: mono-ubiquitination of histone H2B at K120 (uH2B); assay: Western analysis of uH2B, chronic (up to 9-day) resveratrol treatment; format: cell-based, human
Experimental: as §6, §7

Oc1ccc(/C=C/c2cc(O)cc(O)c2)cc1 [resveratrol, 3,4′,5-trihydroxy-trans-stilbene]
proliferation of glioma cells (viable cell number) (U118 cells [1]): significantly inhibited proliferation
proliferation of glioma cells (viable cell number) (U87 cells [2]): significantly inhibited proliferation
mean diameter of treated cells versus diameter parallel to the spindle axis of mock- or vehicle-treated cells (U87 cells [3]): 5 fold
cellular hypertrophy (cell volume and cell morphology) (U87 cells [3]; resveratrol treatment): induced dramatic changes in cell volume and cell morphology
cellular hypertrophy (cell volume and cell morphology) (U118 cells [4]): induced dramatic changes in cell volume and cell morphology
expression of SA-β-gal senescence marker (U118 glioma cells): SA-β-gal was detected
expression of SA-β-gal senescence marker (U87 glioma cells): SA-β-gal was detected
clonogenicity (plating efficiency, colonies of more than 50 cells) (U118 cells [5]): marked decrease in their propensity for forming colonies
clonogenicity (plating efficiency, colonies of more than 50 cells) (U87 cells [6]): marked decrease in their propensity for forming colonies
tumorigenicity (tumor volume) in xenograft model (U118 xenograft): inhibited the tumorigenecity
tumorigenicity (tumor volume) in xenograft model (U87 xenograft): inhibited the tumorigenecity
uH2B level (Western) ([7]; 10, 100, 500 μM for 4 h, U87, U118, MCF7, H1299, PC3, HDF, HMEpC): inhibited uH2B within 4 hours in a dose-dependent manner
uH2B level (Western) ([7]; acute incubation, high dose 500 μM): effective in inhibiting uH2B
uH2B level (Western) ([8]; U87, chronic treatment up to 9 days, 6, 20, 60 μM): inhibited uH2B
uH2B level (Western) ([8]; U118, chronic treatment up to 9 days, 6, 10, 20 μM): inhibited uH2B
